For one compound, Kd results are on record in patent US8835648B2, “Hedgehog pathway antagonists and therapeutic applications thereof” (Siena Biotech S.p.A., priority 2009, dated 2014).

The target in one experiment is T1, Smo receptor (Homo sapiens, UniProt Q99835).
T1 construct: expressed in transfected cells; template pCMV6-XL5-Smo, Origene cat; TC122724
In words: Bodipy-Cyclopamine specific binding curve, Smo-FLAG transfected cell line clone 3-5. The conditions noted are these: stable Smo-FLAG transfected cell line clone 3-5.

Experiment [1] has as its system 293FlpIN/clone E-3 mock transfected cells. Put plainly: Bodipy-Cyclopamine specific binding curve, mock transfected cell line clone E-3. The settings on record: stable mock transfected cell line clone E-3.

T1 sequence (Q99835 28-787): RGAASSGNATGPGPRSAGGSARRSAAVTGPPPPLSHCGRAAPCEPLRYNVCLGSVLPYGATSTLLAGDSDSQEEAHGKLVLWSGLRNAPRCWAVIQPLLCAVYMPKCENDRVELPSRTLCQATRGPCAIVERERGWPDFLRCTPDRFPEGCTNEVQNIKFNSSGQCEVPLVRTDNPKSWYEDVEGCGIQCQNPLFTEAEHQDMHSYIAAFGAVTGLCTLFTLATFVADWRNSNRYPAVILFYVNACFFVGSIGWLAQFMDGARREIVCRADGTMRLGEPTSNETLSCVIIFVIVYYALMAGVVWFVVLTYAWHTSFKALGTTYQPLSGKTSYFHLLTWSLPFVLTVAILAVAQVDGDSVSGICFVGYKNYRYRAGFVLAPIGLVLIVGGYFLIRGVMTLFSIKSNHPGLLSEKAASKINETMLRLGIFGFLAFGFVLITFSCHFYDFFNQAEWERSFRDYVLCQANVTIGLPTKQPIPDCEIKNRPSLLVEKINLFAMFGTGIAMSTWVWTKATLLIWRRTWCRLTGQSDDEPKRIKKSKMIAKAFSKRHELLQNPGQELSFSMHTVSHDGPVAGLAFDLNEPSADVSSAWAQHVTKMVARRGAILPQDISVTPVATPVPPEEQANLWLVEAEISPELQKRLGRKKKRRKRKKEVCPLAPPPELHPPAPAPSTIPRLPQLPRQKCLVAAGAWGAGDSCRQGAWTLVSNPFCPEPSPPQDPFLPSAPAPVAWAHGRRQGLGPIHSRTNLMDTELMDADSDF

In the case of `CC1=C2CC3C(CC=C4C[C@@H](O)CCC43C)C2CCC12O[C@@H]1CC(C)CN(CCNC(=O)CCCCCNC(=O)CCC3=[N+]4C(=Cc5c(C)cc(C)n5[B-]4(F)F)C=C3)C1C2C` (some centres unmarked) [Bodipy-Cyclopamine], the figures for the Kd (at Smo receptor; in experiment [1]) were 44.3 nM and 115 nM, respectively.

As a reminder, the Kd is the constant that tells how readily two partners part at equilibrium. A higher Kd goes with weaker binding.
